The first assay deals with T1, Csk (Homo sapiens, UniProt P41240).
T1 construct: GST (glutathione-S-transferase) (N); made in house; host or cells: E. coli (pGEX vector)
T1 sequence (P41240 whole entry, species assumed): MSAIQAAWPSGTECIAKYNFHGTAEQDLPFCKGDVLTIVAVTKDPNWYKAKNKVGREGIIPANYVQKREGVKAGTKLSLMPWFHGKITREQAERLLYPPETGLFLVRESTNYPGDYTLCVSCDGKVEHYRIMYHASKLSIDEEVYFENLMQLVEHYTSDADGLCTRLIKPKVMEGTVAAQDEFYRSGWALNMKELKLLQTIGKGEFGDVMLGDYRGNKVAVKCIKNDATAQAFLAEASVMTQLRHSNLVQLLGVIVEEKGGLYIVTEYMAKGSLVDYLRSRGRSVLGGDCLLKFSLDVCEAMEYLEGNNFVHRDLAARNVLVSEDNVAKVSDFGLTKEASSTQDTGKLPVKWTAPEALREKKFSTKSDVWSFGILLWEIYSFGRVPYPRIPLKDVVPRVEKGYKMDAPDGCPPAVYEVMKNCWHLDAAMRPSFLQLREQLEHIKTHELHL
Nature of the assay: Csk tyrosine kinase activity, poly E4Y and 32P-ATP. The format is biochemical. The note with it: screening assay, 50 μg/ml poly E4Y, 0.2 mM 32P-ATP. The protocol:
(§1) Recombinant human Src was expressed using the baculovirus-insect cell system and purified as published (Budde et al., 1993 and 2000). Recombinant Csk and the FGF receptor (FGFr) were expressed as glutathione-S-transferase fusion proteins using the pGEX expression vector and E. coli, and purified as described (Sun & Budde, 1995).
(§2) The tyrosine kinase activity of Src, Csk and FGFr was determined using poly E4Y and ^32P-ATP. Briefly, enzymes were assayed in a reaction mixture consisting of 0.15 M EPPS-NaOH (pH 8.0) with 6 mM MgCl2, 0.2 mM γ^32P-ATP (0.2-0.4 mCi/μmol), 10% glycerol, 0.1% Triton X-100, and poly E4Y. Poly E4Y is a synthetic peptide whose phosphorylation is measured in this assay by the addition of the radioactively labeled phosphate from the ATP (Budde et al., 1995). […] When ATP was varied (0, 50, 100 and 250 μM), poly E4Y was kept constant at 150 μg/ml.
Usually IC50 stands for the concentration at which inhibition is half-maximal. As for `N#Cc1ccc(C=NNc2ncnc3c2sc2ncccc23)cc1` [Compound 248], the 50% inhibitory concentration (IC50) is more than 151 µM.

With `Clc1ccc(-c2cc3ncnc(NN=Cc4cccnc4)c3s2)cc1` [Compound 308, 3-Pyridinecarboxaldehyde(6-(4-chlorophenyl)thieno[3,2-d]pyrimidin-4-yl)hydrazone], the IC50 was more than 137 µM.

As for `Cc1csc2c(NN=Cc3ccc(Br)cc3)ncnc12` [Compound 56], the IC50 is more than 144 µM.

Molecule `CCCCOc1cccc(C=NNc2ncnc3c(C)csc23)c1` [Compound 139] displayed a half-maximal inhibitory concentration (IC50) of more than 147 µM.

For `Clc1cccc(-c2cc3ncnc(NN=Cc4cccnc4)c3s2)c1` [Compound 304, 3-Pyridinecarboxaldehyde(6-(3-chlorophenyl)thieno[3,2-d]pyrimidin-4-yl)hydrazone], the IC50 is more than 137 µM.

Regarding `Clc1cccc(-c2cc3ncnc(NN=Cc4cccs4)c3s2)c1` [Compound 306], the IC50 is more than 135 µM.

Take `COc1ccc(-c2cc3ncnc(NN=Cc4cccs4)c3s2)cc1` [Compound 407, 2-Thiophenecarboxaldehyde(6-(4-methoxyphenyl)thieno[3,2-d]pyrimidin-4-yl)hydrazone]: the IC50 was more than 136 µM.

For `CSc1ccc(C=NNc2ncnc3c(C)csc23)cc1` [Compound 172, 4-(Methylthio)benzaldehyde(7-methylthieno[3,2-d]pyrimidin-4-yl)hydrazone], the IC50 was more than 159 µM.

`Cc1c(I)sc2c(NN=Cc3cccs3)ncnc12` [Compound 374, 2-Thiophenecarboxaldehyde(6-iodo-7-methylthieno[3,2-d]pyrimidin-4-yl)hydrazone] gave an IC50 of more than 125 µM.

Molecule `CCCOc1cccc(C=NNc2ncnc3c(C)csc23)c1` [Compound 135, 3-Propoxybenzaldehyde(7-methylthieno[3,2-d]pyrimidin-4-yl)hydrazone] displayed an IC50 of more than 153 µM.

As to `CC=CC=NNc1ncnc2c(C)csc12` [Compound 182, E-2-Butenal(7-methylthieno[3,2-d]pyrimidin-4-yl)hydrazone], the IC50 was more than 215 µM.

With `Cc1csc2c(NN=Cc3cccc([N+](=O)[O-])c3)ncnc12` [Compound 144], the IC50 is more than 160 µM.

As to `Cc1csc2c(NN=Cc3nccn3C)ncnc12` [Compound 101, 1-Methyl-1H-imidazole-2-carboxaldehyde(7-methylthieno[3,2-d]pyrimidin-4-yl)hydrazone], the 50% inhibitory concentration (IC50) is more than 184 µM.

`Ic1cc2ncnc(NN=Cc3cccs3)c2s1` [Compound 396, 2-Thiophenecarboxaldehyde(6-iodothieno[3,2-d]pyrimidin-4-yl)hydrazone] gave an IC50 of more than 129 µM.

In turn, `CC=NNc1ncnc2c(C)csc12` [Compound 153, Ethanal(7-methylthieno[3,2-d]pyrimidin-4-yl)hydrazone] yielded an IC50 of more than 242 µM.

For `Clc1ccc(-c2cc3ncnc(NN=Cc4cccs4)c3s2)cc1` [Compound 310], the IC50 is more than 135 µM.

Consider `Cc1csc2c(NN=Cc3ccc(O)cc3)ncnc12` [Compound 10, 4-Hydroxybenzaldehyde(7-methylthieno[3,2-d]pyrimidin-4-yl)hydrazone], for which the IC50 is more than 176 µM.

Regarding `Cc1ccsc1C=NNc1ncnc2c(C)csc12` [Compound 119, 3-Methyl-2-thiophenecarboxaldehyde(7-methylthieno[3,2-d]pyrimidin-4-yl)hydrazone], the IC50 was more than 173 µM.

On to `C(=NNc1ncnc2cc(-c3ccccc3)sc12)c1cccs1` [Compound 253], for which the IC50 is more than 149 µM.

In turn, `Cc1csc2c(NN=Cc3ccccn3)ncnc12` [Compound 26, 2-Pyridinecarboxaldehyde(7-methylthieno[3,2-d]pyrimidin-4-yl)hydrazone] returned an IC50 of more than 186 µM.

Another assay deals with T2, Recombinant human Src (Homo sapiens, UniProt P12931).
T2 construct: made in house; host or cells: baculovirus-insect cell system
T2 sequence (P12931 whole entry): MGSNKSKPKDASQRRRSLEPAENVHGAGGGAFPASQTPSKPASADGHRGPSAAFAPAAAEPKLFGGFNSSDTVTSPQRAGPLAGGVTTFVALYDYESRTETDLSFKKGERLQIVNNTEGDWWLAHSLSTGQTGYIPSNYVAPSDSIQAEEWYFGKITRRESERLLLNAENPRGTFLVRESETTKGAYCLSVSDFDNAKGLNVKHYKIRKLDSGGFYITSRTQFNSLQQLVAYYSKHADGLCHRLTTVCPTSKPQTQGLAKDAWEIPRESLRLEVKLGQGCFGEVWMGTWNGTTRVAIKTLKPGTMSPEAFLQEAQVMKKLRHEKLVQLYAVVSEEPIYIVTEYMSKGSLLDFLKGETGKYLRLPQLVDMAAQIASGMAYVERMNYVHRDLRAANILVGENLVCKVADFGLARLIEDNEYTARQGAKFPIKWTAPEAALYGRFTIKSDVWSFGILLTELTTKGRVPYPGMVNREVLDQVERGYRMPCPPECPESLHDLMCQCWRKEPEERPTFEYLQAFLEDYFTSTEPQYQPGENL
Nature of the assay: Src tyrosine kinase activity, poly E4Y and 32P-ATP. It counts as biochemical. To be noted: Table 2; read-out: Src IC50 (especially good inhibitors of Src). The protocol: as §1, §2
For the molecule `Cc1c(C(O)c2cccnc2)sc2c(NN=Cc3ccc(C(=O)O)cc3)ncnc12` (stereo not shown) [Compound 484, 4-Carboxybenzaldehyde(6-(1-hydroxy-1-[3-pyridyl])methyl-7-methylthieno[3,2-d]pyrimidin-4-yl)hydrazone], the IC50 is not above 2000 nM.

Still in this assay, the particulars now being: read-out: IC50 (preferred compounds for treatment of Src family-related disease).
On to `Cc1c(C(O)c2cccnc2)sc2c(NN=Cc3ccc(C(=O)O)cc3)ncnc12` (stereo not shown) [Compound 484, 4-Carboxybenzaldehyde(6-(1-hydroxy-1-[3-pyridyl])methyl-7-methylthieno[3,2-d]pyrimidin-4-yl)hydrazone], for which the IC50 is less than 2000 nM.
